Reference: patent US8436035B2, “Organic compounds” (Novartis AG, priority 2006, dated 2013)

Legend:
[1] = target: T1, CYP11B1 (Homo sapiens, UniProt P15538); assay: in vitro CYP11B1 inhibition, steroid release from NCI-H295R cells; format: cell-based; conditions: NCI-H295R; read-out: 11B1 % I @ 100 nM
T1 construct: Thus, the NCI-H295R cells have Cyp11 B1 (steroid 11 p-hydroxylase); host or cells: NCI-H295R
T1 sequence (P15538 25-503): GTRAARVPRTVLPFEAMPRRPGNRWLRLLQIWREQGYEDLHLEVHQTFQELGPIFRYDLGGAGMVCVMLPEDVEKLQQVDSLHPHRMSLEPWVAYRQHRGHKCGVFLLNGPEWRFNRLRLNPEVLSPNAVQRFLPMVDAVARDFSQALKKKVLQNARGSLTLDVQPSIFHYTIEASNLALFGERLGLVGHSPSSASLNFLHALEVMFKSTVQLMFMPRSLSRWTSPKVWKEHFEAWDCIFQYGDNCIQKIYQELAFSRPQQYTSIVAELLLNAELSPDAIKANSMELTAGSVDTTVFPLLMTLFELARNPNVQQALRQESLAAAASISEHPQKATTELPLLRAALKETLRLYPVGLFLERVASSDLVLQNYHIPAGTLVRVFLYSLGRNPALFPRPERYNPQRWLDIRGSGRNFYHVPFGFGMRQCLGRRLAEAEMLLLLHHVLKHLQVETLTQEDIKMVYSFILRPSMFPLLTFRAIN
From the text: The in vitro inhibitory activities for CYP11B1 can be determined by the following assay.
The cell line NCI-H295R was originally isolated from an adrenocortical carcinoma and has been characterized in the literature through the stimulable secretion of steroid hormones and the presence of the enzymes essential for steroidogenesis. Thus, the NCI-H295R cells have Cyp11 B1 (steroid 11 p-hydroxylase). The cells show the physiological property of zonally undifferentiated human foetal adrenocortical cells which, however, have the capacity to produce the steroid hormones which are formed in the three, phenotypically distinguishable zones in the adult adrenal cortex.
The NCI-H295R cells (American Type Culture Collection, ATCC, Rockville, Md., USA) are grown in Dulbeoco's Modified Eagle'Ham F-12 Medium (DME/F12), which has been I supplemented with Ulroser SF Serum (Soprachem, Cergy-Saint-Christophe, France), insulin, transferrin, selenite (I-T-S, Becton Dickinson Biosciences, Franklin lakes, NJ, USA) and antibiotics in 75 cm^2 cell culture vessels at 37° C. and in a 95% air-5% carbon dioxide atmosphere. The cells are subsequently transferred for colony formation into a 24-well incubation vessel. They are cultivated there in DME/F12 medium, which is now supplemented with 0.1% bovine serum instead of Ultroser SF for 24 hours. The experiment is initiated by cultivating the cells in DME/F12 medium which is supplemented with 0.1% bovine serum albumin and test compound, in the presence or absence of cell stimulants, for 72 hours. The test substance is added in a concentration range from 0.2 nanomolar to […]. Cell stimulants which can be used are angiotensin 11 ([…] or 100 nanomolar), potassium ions (16 millimolar), forskolin (10 micromolar) or a combination of two stimulants.
The excretion of aldosterone, cortisol, corticosterone and estradiol/estrone into the culture medium can be detected and quantified by commercially available, specific monoclonal antibodies in radioimmunoassays in accordance with the manufacturer's instructions.
Inhibition of the release of certain steroids can be used as a measure of the respective enzyme inhibition by the added test compounds. The dose-dependent inhibition of enzymic activity by a compound is calculated by means of an inhibition plot which is characterized by an IC50.
The IC50 values for active test compounds are ascertained by a […] in order to construct inhibition plots without data weighting. The inhibition plot is calculated by fting a 4-parameter logistic function to the raw data points using the least squares method. The equation of the 4-parameter logistic function is calculated as follows: Y=(d−a)/((1+(x/c)b))+a I where: a=minimum data level b=gradient I c=ICED, d=maximum data level x=inhibitor concentration.

[2] = target: T2, aldosterone synthase (CYP11B2) (Homo sapiens, UniProt P19099); assay: in vitro aldosterone synthase inhibition, aldosterone production in Ang II-stimulated NCI-H295R cells; format: cell-based; conditions: read-out: AS IC50
T2 construct: host or cells: NCI-H295R
T2 sequence (P19099 25-503): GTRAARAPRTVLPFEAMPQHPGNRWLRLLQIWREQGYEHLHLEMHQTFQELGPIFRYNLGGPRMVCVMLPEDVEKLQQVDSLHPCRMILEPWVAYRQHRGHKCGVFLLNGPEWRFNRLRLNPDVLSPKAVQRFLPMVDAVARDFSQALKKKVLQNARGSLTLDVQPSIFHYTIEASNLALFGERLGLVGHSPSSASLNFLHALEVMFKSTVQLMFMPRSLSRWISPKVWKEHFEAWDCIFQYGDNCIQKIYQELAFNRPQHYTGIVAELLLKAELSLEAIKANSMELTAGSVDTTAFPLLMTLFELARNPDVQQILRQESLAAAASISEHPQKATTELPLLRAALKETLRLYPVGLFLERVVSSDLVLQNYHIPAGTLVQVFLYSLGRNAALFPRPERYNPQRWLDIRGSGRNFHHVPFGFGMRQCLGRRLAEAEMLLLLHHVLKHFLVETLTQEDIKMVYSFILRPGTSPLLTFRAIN
From the text: In particular, the aldosterone synthase inhibitory activities in vitro can be determined by the following assay.
Human adrenocortical carcinoma NCI-H295R cell line is obtained from American Type Culture Collection (Manassas, Va.). Insulin/transferrin/selenium (ITS)-A supplement (100×), DMEM/F-12, antibiotic/antimycotic (100×), and fetal calf serum (FCS) are purchased from Gibco (Grand Island, N.Y.). Anti-mouse PVT scintillation proximity assay (SPA) beads and NBS 96-well plates are obtained from Amersham (Piscataway, N.J.) and Corning (Acton, Mass.), respectively. Solid black 96-well flat bottom plates were purchased from Costar (Corning, N.Y.). Aldosterone and angiotensin (Ang II) are purchased from Sigma (St. Louis, Mo.). D-[1,2,6,7-^3H(N)]aldosterone was acquired from PerkinElmer (Boston, Mass.). Nu-serum was a product of BD Biosciences (Franklin Lakes, N.J.).
For in vitro measurement of aldosterone activity, human adrenocortical carcinoma NCI-H295R cells are seeded in NBS 96-well plates at a density of 25,000 cells/well in 100 μl of a growth medium containing DMEM/F12 supplemented with 10% FCS, 2.5% Nu-serum, 1 μg ITS/ml, and 1× antibiotic/antimycotic. The medium is changed after culturing for 3 days at 37° C. under an atmosphere of 5% CO2/95% air. On the following day, cells are rinsed with 100 μl of DMEM/F12 and incubated with 100 μl of treatment medium containing 1 μM Ang II and a compound at different concentrations in quadruplicate wells at 37° C. for 24 hr. At the end of incubation, 50 μl of medium is withdrawn from each well for measurement of aldosterone production by an RIA using mouse anti-aldosterone monoclonal antibodies.
Measurement of aldosterone activity can also be performed using a 96-well plate format. Each test sample is incubated with 0.02 μCi of D-[1,2,6,7-^3H(N)]aldosterone and 0.3 μg of anti-aldosterone antibody in phosphate-buffered saline (PBS) containing 0.1% Triton X-100, 0.1% bovine serum albumin, and 12% glycerol in a total volume of 200 μl at room temperature for 1 hr. Anti-mouse PVT SPA beads (50 μl) are then added to each well and incubated overnight at room temperature prior to counting in a Microbeta plate counter. The amount of aldosterone in each sample is calculated by comparing with a standard curve generated using known quantities of the hormone.

inhibition at 0.1 µM [1] [%]	IC50 [2] [µM]	Compound
93	0.194	CC1(C)C(n2cncc2CO)c2ccccc2S1(=O)=O (stereo not shown) [Compound 24, [3-(2,2-Dimethyl-1,1-dioxo-2,3-dihydro-1H-1lambda*6*-benzo[b]thiophen-3-yl)-3H-imidazol-4-yl]-methanol]
100	0.194	CCc1cncn1C1CC(C)(C)c2ccccc21 (stereo not shown) [Compound 22, 1-(3,3-Dimethyl-indan-1-yl)-5-ethyl-1H-imidazole]
99	0.027	COC(=O)c1cncn1C1c2ccccc2C(=O)CC1(C)C (single isomer, unassigned) [Compound 10, 3-(2,2-Dimethyl-4-oxo-1,2,3,4-tetrahydro-naphthalen-1-yl)-3H-imidazole-4-carboxylic acid methyl ester]

More lines, now with the values behind:

Compound	inhibition at 0.1 µM [1] [%]	IC50 [2] [µM]
CC(C)OC(=O)c1cncn1C1CCCc2ccc(C(=O)N3CCCC3)cc21 (single isomer, unassigned) [Compound 3, 3-[7-(Pyrrolidine-1-carbonyl)-1,2,3,4-tetrahydro-naphthalen-1-yl]-3H-imidazole-4-carboxylic acid isopropyl ester]	87	0.215
CCc1cncn1C1CCC(C)(C)c2ccccc21 (single isomer, unassigned) [Compound 8, 1-(4,4-Dimethyl-1,2,3,4-tetrahydro-naphthalen-1-yl)-5-ethyl-1H-imidazole]	100	0.035
